# Measured values published in PubChem BioAssay AID248 (DTP/NCI, 2004).
# “And” between values parts separate entries of the source, which are not always exact repeats. Equal entries are not always repeated. Inconclusive results and toxic doses are left out.
# Tested on: L1210 leukemia ip in BDF1 mice, survival T/C
# Assay: NCI In Vivo Anticancer Drug Screen. Data for tumor model L1210 Leukemia (intraperitoneal) in B6D2F1 (BDF1) mice
# Conditions: endpoint: mean survival time, higher = longer survival
# Outline: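 Read-out is survival time, reported as the treated-group measurement over the vehicle-control measurement.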
structure (smiles),measurement,setting,value
O=C1N[C@@H]([C@H]2CC[C@H](Cl)CN2)C(=O)N[C@H]1[C@H]1CC[C@H](Cl)CN1,T/C,"dose: 0.05 mg/kg/injection, schedule: Q01DX009 (ip), vehicle: saline",98 % of control and 109 % of control
same,T/C,"dose: 0.1 mg/kg/injection, schedule: Q01DX009 (ip), vehicle: saline",104 % of control and 113 % of control
same,T/C,"dose: 0.2 mg/kg/injection, schedule: Q01DX009 (ip), vehicle: saline",104 % of control and 124 % of control
same,T/C,"dose: 0.25 mg/kg/injection, schedule: Q03HX008 (ip), vehicle: saline",117 % of control
same,T/C,"dose: 0.25 mg/kg/injection, schedule: Q03HX016 (ip), vehicle: saline",121 % of control
same,T/C,"dose: 0.39 mg/kg/injection, schedule: Q01DX009 (ip), vehicle: water",104 % of control
same,T/C,"dose: 0.4 mg/kg/injection, schedule: Q01DX009 (ip), vehicle: saline",107 % of control
same,T/C,"dose: 0.5 mg/kg/injection, schedule: Q01DX009 (ip), vehicle: saline",150 % of control
same,T/C,"dose: 0.5 mg/kg/injection, schedule: Q03HX016 (ip), vehicle: saline",158 % of control
same,T/C,"dose: 0.78 mg/kg/injection, schedule: Q01DX009 (ip), vehicle: water",120 % of control
same,T/C,"dose: 0.8 mg/kg/injection, schedule: Q01DX009 (ip), vehicle: saline",190 % of control
same,T/C,"dose: 1.0 mg/kg/injection, schedule: Q01DX001 (ip), vehicle: other",103 % of control
same,T/C,"dose: 1.0 mg/kg/injection, schedule: Q01DX001 (ip), vehicle: saline",173 % of control
same,T/C,"dose: 1.0 mg/kg/injection, schedule: Q01DX009 (ip), vehicle: saline",161 % of control and 186 % of control
same,T/C,"dose: 1.0 mg/kg/injection, schedule: Q01DX009 (ip), vehicle: water",108 % of control
same,T/C,"dose: 1.0 mg/kg/injection, schedule: Q01DX009 (sc), vehicle: saline",161 % of control
same,T/C,"dose: 1.0 mg/kg/injection, schedule: Q03HX008 (ip), vehicle: saline",165 % of control
same,T/C,"dose: 1.0 mg/kg/injection, schedule: Q03HX016 (ip), vehicle: saline",280 % of control
same,T/C,"dose: 1.1 mg/kg/injection, schedule: Q01DX009 (ip), vehicle: saline",246 % of control
same,T/C,"dose: 1.25 mg/kg/injection, schedule: Q01DX001 (ip), vehicle: saline",116 % of control and 122 % of control
same,T/C,"dose: 1.3 mg/kg/injection, schedule: Q01DX009 (ip), vehicle: saline",159 % of control
same,T/C,"dose: 1.5 mg/kg/injection, schedule: Q01DX009 (ip), vehicle: saline",171 % of control and 189 % of control
same,T/C,"dose: 1.56 mg/kg/injection, schedule: Q01DX009 (ip), vehicle: water",160 % of control
same,T/C,"dose: 1.8 mg/kg/injection, schedule: Q01DX009 (ip), vehicle: saline",255 % of control
same,T/C,"dose: 2.0 mg/kg/injection, schedule: Q01DX001 (ip), vehicle: none",120 % of control
same,T/C,"dose: 2.0 mg/kg/injection, schedule: Q01DX001 (ip), vehicle: other",124 % of control
same,T/C,"dose: 2.0 mg/kg/injection, schedule: Q01DX001 (sc), vehicle: saline",114 % of control
same,T/C,"dose: 2.0 mg/kg/injection, schedule: Q01DX009 (ip), vehicle: saline",206 % of control and 290 % of control and 306 % of control
same,T/C,"dose: 2.0 mg/kg/injection, schedule: Q01DX009 (ip), vehicle: water",119 % of control
same,T/C,"dose: 2.0 mg/kg/injection, schedule: Q01DX009 (oral), vehicle: saline",173 % of control
same,T/C,"dose: 2.0 mg/kg/injection, schedule: Q01DX009 (sc), vehicle: saline",201 % of control
same,T/C,"dose: 2.0 mg/kg/injection, schedule: Q03HX008 (ip), vehicle: saline",430 % of control
same,T/C,"dose: 2.0 mg/kg/injection, schedule: Q03HX016 (ip), vehicle: saline",207 % of control
same,T/C,"dose: 2.0 mg/kg/injection, schedule: Q04DX003 (ip), vehicle: saline",172 % of control
same,T/C,"dose: 2.0 mg/kg/injection, schedule: Q08DX002 (ip), vehicle: saline",155 % of control
same,T/C,"dose: 2.2 mg/kg/injection, schedule: Q01DX009 (ip), vehicle: saline",210 % of control and 297 % of control
same,T/C,"dose: 2.6 mg/kg/injection, schedule: Q01DX009 (ip), vehicle: saline",206 % of control and 470 % of control
same,T/C,"dose: 3.0 mg/kg/injection, schedule: Q01DX009 (ip), vehicle: saline",229 % of control
same,T/C,"dose: 3.13 mg/kg/injection, schedule: Q01DX009 (ip), vehicle: water",213 % of control
same,T/C,"dose: 4.0 mg/kg/injection, schedule: Q01DX001 (oral), vehicle: saline",176 % of control
same,T/C,"dose: 4.0 mg/kg/injection, schedule: Q01DX009 (oral), vehicle: saline",86 % of control
same,T/C,"dose: 4.0 mg/kg/injection, schedule: Q04DX003 (ip), vehicle: saline",208 % of control
same,T/C,"dose: 4.0 mg/kg/injection, schedule: Q08DX002 (ip), vehicle: saline",213 % of control
same,T/C,"dose: 5.0 mg/kg/injection, schedule: Q01DX001 (ip), vehicle: saline",165 % of control and 170 % of control
same,T/C,"dose: 5.0 mg/kg/injection, schedule: Q01DX001 (ip), vehicle: water",222 % of control
same,T/C,"dose: 6.25 mg/kg/injection, schedule: Q01DX009 (ip), vehicle: water",97 % of control
same,T/C,"dose: 6.5 mg/kg/injection, schedule: Q01DX001 (ip), vehicle: saline",273 % of control and 327 % of control
same,T/C,"dose: 6.7 mg/kg/injection, schedule: Q01DX001 (ip), vehicle: saline",257 % of control
same,T/C,"dose: 8.0 mg/kg/injection, schedule: Q01DX001 (ip), vehicle: none",207 % of control
same,T/C,"dose: 8.0 mg/kg/injection, schedule: Q01DX001 (ip), vehicle: other",316 % of control
same,T/C,"dose: 8.0 mg/kg/injection, schedule: Q01DX001 (oral), vehicle: saline",240 % of control
same,T/C,"dose: 8.0 mg/kg/injection, schedule: Q01DX001 (sc), vehicle: saline",150 % of control
same,T/C,"dose: 8.0 mg/kg/injection, schedule: Q01DX009 (ip), vehicle: water",279 % of control
same,T/C,"dose: 8.0 mg/kg/injection, schedule: Q04DX003 (ip), vehicle: saline",103 % of control
same,T/C,"dose: 9.1 mg/kg/injection, schedule: Q01DX009 (ip), vehicle: saline",86 % of control
same,T/C,"dose: 9.7 mg/kg/injection, schedule: Q01DX001 (ip), vehicle: saline",151 % of control and 254 % of control
same,T/C,"dose: 10.0 mg/kg/injection, schedule: Q01DX001 (ip), vehicle: water",278 % of control
same,T/C,"dose: 11.6 mg/kg/injection, schedule: Q01DX001 (ip), vehicle: saline",234 % of control and 314 % of control
same,T/C,"dose: 16.0 mg/kg/injection, schedule: Q01DX001 (ip), vehicle: none",155 % of control
same,T/C,"dose: 16.0 mg/kg/injection, schedule: Q01DX001 (ip), vehicle: other",279 % of control
same,T/C,"dose: 16.0 mg/kg/injection, schedule: Q01DX001 (oral), vehicle: saline",223 % of control
same,T/C,"dose: 16.0 mg/kg/injection, schedule: Q01DX009 (ip), vehicle: water",383 % of control
same,T/C,"dose: 16.0 mg/kg/injection, schedule: Q08DX002 (ip), vehicle: saline",90 % of control
same,T/C,"dose: 32.0 mg/kg/injection, schedule: Q01DX001 (ip), vehicle: none",64 % of control
same,T/C,"dose: 200.0 mg/kg/injection, schedule: Q01DX001 (ip), vehicle: water",115 % of control
same,T/C,"dose: 400.0 mg/kg/injection, schedule: Q01DX001 (ip), vehicle: water",199 % of control
same,T/C,"dose: 800.0 mg/kg/injection, schedule: Q01DX001 (ip), vehicle: water",158 % of control
same,T/C,"dose: 125.0 micrograms/kg/injection, schedule: Q03HX024 (ip), vehicle: saline",121 % of control
same,T/C,"dose: 500.0 micrograms/kg/injection, schedule: Q03HX024 (ip), vehicle: saline",165 % of control
same,T/C,"dose: 1000.0 micrograms/kg/injection, schedule: Q03HX024 (ip), vehicle: saline",211 % of control
O=C(O)C1CC2C3CC(C(=O)O)C(C3)C2C1 (configuration not stated),T/C,"dose: 100.0 mg/kg/injection, schedule: Q01DX009 (ip), vehicle: saline",96 % of control
same,T/C,"dose: 100.0 mg/kg/injection, schedule: Q04DX003 (ip), vehicle: saline",102 % of control
same,T/C,"dose: 200.0 mg/kg/injection, schedule: Q01DX009 (ip), vehicle: saline",101 % of control
same,T/C,"dose: 200.0 mg/kg/injection, schedule: Q04DX003 (ip), vehicle: saline",100 % of control
same,T/C,"dose: 400.0 mg/kg/injection, schedule: Q01DX009 (ip), vehicle: saline",101 % of control
same,T/C,"dose: 400.0 mg/kg/injection, schedule: Q04DX003 (ip), vehicle: saline",96 % of control
[CH3][Sb]([CH3])([CH3])([O]C(=O)C(Cl)Cl)[O]C(=O)C(Cl)Cl,T/C,"dose: 100.0 mg/kg/injection, schedule: Q04DX003 (ip), vehicle: saline with Tween-80",105 % of control
same,T/C,"dose: 200.0 mg/kg/injection, schedule: Q04DX003 (ip), vehicle: saline with Tween-80",108 % of control
same,T/C,"dose: 400.0 mg/kg/injection, schedule: Q04DX003 (ip), vehicle: saline with Tween-80",103 % of control
CCOC(=O)c1c[nH]c2cc(OCC(C)C)c(OCC(C)C)cc2c1=O,T/C,"dose: 100.0 mg/kg/injection, schedule: Q01DX001 (ip), vehicle: saline with Tween-80",104 % of control
same,T/C,"dose: 200.0 mg/kg/injection, schedule: Q01DX001 (ip), vehicle: saline with Tween-80",100 % of control
same,T/C,"dose: 400.0 mg/kg/injection, schedule: Q01DX001 (ip), vehicle: saline with Tween-80",86 % of control
